Results reported in patent US11535851B2, “Reagents for treatment of hepatitis B virus (HBV) infection and use thereof” (priority 2016, dated 2022).

Key:
Assay type in all cases: in vivo
HBV genotype C [1] = test: Serum HBeAg in HBV-infected PXB chimeric mouse model
Experimental: (§1) The in vivo effect of the anti-HBV shmiR or shRNA-expressing AAV particles (as illustrated in FIG. 5) was determined in a PXB chimeric mouse model infected de novo with HBV inoculum. Inhibition of various HBV parameters was assessed: (i) expression of HBV viral transcripts, (ii) extracellular HbsAg, HBcAg and HBeAg, (iii) extracellular and intracellular HBV DNA, and (iv) formation of cccDNA.
(§2) Chimeric PXB mice (PXB-mice®) were obtained from PhoenixBio. All mice were housed individually at 23±5° C. and a humidity of 55±25% humidity, exposed to 12 hours-light/dark cycles and fed and watered ad libitum throughout the experiment. […] To determine baseline HBV infection, blood was taken from mice at days −28, −21, −14 and −7 (i.e., 0, 7, 14 and 21 days post inoculation, respectively), from which human albumin (h-Alb) concentration and serum concentrations of HBV DNA, HBsAg and HBeAg were determined. These permit detection of liver damage in test animals—no adverse reactions were detected.
(§3) Serum HBsAg and HBeAg concentrations were determined using ChemiLuminescence ImmunoAssay (CLIA) e.g., as developed by Abbott ([…]® SYSTEM). […]
(§4) Following administration of the treatment (day 0), animals were then incubated for a further 91 days. […] HBeAg levels were measured every other week through Day 70 and then weekly thereafter until the conclusion of the 91 day experiment.

HBV genotype C [2] = test: Serum HBV DNA in HBV-infected PXB chimeric mouse model; settings: treatment arm of daily ETV only; FIG. 7
Experimental: as §1, §2
Remaining whole blood was centrifuged to separate serum for HBV DNA quantification, HbsAg, HBcAg and HBeAg analysis. […] Synthetic HBV DNA was used to determine the concentration of the HBV DNA standard which was then used in quantification of the serum HBV DNA level. […]

HBV viral transcripts = test: Liver HBV RNA levels by RT-QPCR in PXB chimeric mouse model; settings: FIG. 11
From the text: After the completion of blood sampling on Day 91, all the surviving animals were kept under isoflurane anesthesia and sacrificed by cardiac puncture and exsanguination. Once sacrificed, whole livers were harvested from mice and weighed. A slice of liver of 3 to 5 mm in thickness was obtained from left lateral lobe and cut into cubes approximately 1 to 2 mm on a side. These liver cubes were transferred into a labelled tube and immersed in RNAlater® solution (Ambion, Thermo Fisher Scientific Inc., Waltham, Mass., USA) as quickly as possible. The liver samples were incubated in ≥5 volumes of RNAlater® overnight at 4° C. to allow the solution to penetrate the tissue. After the incubation, the RNAlater® solution was removed and the liver pieces were stored at −80° C. for subsequent quantification of the various hepatic HBV DNA and RNAs as well as expression levels of recombinant AAV derived shRNA or shmiR RNAs.
Using primer/probe sets that are located near each of the RNAi-induced cleavage sites, the levels of HBV RNA was assessed by RT-QPCR (FIG. 11).

HBV cccDNA = test: Liver HBV cccDNA by real-time PCR in PXB chimeric mouse model; settings: ETV; FIG. 12, right panel
Experimental: HBV-infected mice treated with saline served as the negative controls. […] For the anti-HBV ddRNAi treatment groups, ssAAV8-HBV-shRNAx3-v1, scAAV8-HBV-shRNAx3-v1 or ssAAV8-HBV-shmiRx3-v1 was administered once at a dose of 2×10E+13 vg/kg by a low pressure tail vein injection at Day 0. Co-treated animals started daily ETV at Day 1 or were dosed the first time with PEG-IFN on Day 4
After the completion of blood sampling on Day 91, all the surviving animals were kept under isoflurane anesthesia and sacrificed by cardiac puncture and exsanguination. Once sacrificed, whole livers were harvested from mice and weighed. A slice of liver of 3 to 5 mm in thickness was obtained from left lateral lobe and cut into cubes approximately 1 to 2 mm on a side. […] After the incubation, the RNAlater® solution was removed and the liver pieces were stored at −80° C. for subsequent quantification of the various hepatic HBV DNA and RNAs as well as expression levels of recombinant AAV derived shRNA or shmiR RNAs.
To determine the level of hepatic HBV DNA following treatment, HBV DNA was extracted from frozen RNAlater®-preserved liver tissue using the DNeasy® Blood & Tissue Kits (Qiagen K. K., Tokyo, Japan). The DNA was dissolved in 200 μL nuclease-free water, after which the concentration of the DNA solution was determined using BioPhotometer 6131 (Eppendorf Co., Ltd., Tokyo, Japan). […]

HBV genotype C [3] = test: Serum HBsAg in HBV-infected PXB chimeric mouse model; settings: PXB mice, 91 day study; FIG. 8
Experimental: as §1, §2, §3, §4

HBV genotype C [4] = test: Intracellular (liver) HBV DNA by quantitative PCR in PXB chimeric mouse model; settings: entecavir or pegylated interferon alone; FIG. 12, left panel

## C=C1[C@H](CO)[C@@H](O)C[C@@H]1n1cnc2c(=O)[nH]c(N)nc21 [entecavir]
HBV genotype C [1]; PXB mice, 91 day study, FIG. 9
  drop in HBeAg levels: 0.37 log
HBV genotype C [1]; entecavir only
  drop in HBeAg levels: 0.37 log
HBV genotype C [2]
  drop in serum HBV DNA levels: 2.63 log
HBV viral transcripts; monotherapy, through 13 weeks of treatment, RT-QPCR
  reduction of HBV RNA levels / HBV transcripts: ~50%
HBV viral transcripts; transcripts corresponding to shmiR-6, shmiR-15 and shmiR-12
  HBV RNA levels (liver): only modestly reduced
HBV cccDNA
  reduction of cccDNA: slightly more than a one log reduction
HBV genotype C [3]
  drop in HBsAg levels: 0.46 log
HBV genotype C [4]
  drop in intracellular DNA levels: 2 logs
